This assay has as its target T1, chimeric human RORγ-Gal4 receptor (Homo sapiens, UniProt P51449).
T1 sequence (P51449 269-508 limits assumed): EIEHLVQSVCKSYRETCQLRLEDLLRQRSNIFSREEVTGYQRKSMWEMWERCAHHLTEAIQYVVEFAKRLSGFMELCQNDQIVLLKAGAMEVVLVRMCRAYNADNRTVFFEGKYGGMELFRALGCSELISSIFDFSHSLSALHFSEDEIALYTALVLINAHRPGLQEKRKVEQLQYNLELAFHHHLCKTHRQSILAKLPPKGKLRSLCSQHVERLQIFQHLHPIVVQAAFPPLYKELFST
Briefly: transient transactivation assay (RORγ-Gal4 luciferase reporter). Type of assay: cell-based. The note with it: Cos-7 cells transfected with RORγ-Gal4 and 5Gal4 pGL3 TK Luc reporter; overnight incubation; T0901317 at 10^-5 M as reference; read-out: IC50. A general note: Reporter assays use an easily measured gene product as a stand-in for the process of interest.

Molecules are shown by their SMILES.

For the molecule `Cc1cn(Cc2c(Cl)ccc(C(=O)N3CC[C@H](C(=O)O)[C@H](C)C3)c2Cl)c2c(C)cc(C(F)(F)F)cc12` [DH1-1], the 50% inhibitory concentration (IC50) (commonly the concentration that gives 50% inhibition) was < 0.1 µM.
Consider `Cc1cn(Cc2c(Cl)ccc(C(=O)N3CC[C@@H](C(=O)O)[C@@H](C)C3)c2Cl)c2c(C)cc(C(F)(F)F)cc12` [DH1-2], for which the 50% inhibitory concentration (IC50) was < 0.1 µM.
The same measure for `Cc1cn(Cc2c(Cl)ccc(C(=O)N3CCC(C(=O)O)CC3)c2Cl)c2c(C)cc(C(F)(F)F)cc12` [DH, 1-(2,4-dichloro-3-((3,7-dimethyl-5-(trifluoromethyl)-1H-indol-1-yl)methyl)benzoyl)piperidine-4-carboxylic acid]: < 0.1 µM; for `Cc1cn(Cc2c(Cl)ccc(C(=O)N3CCC(CC(=O)O)CC3)c2Cl)c2c(C)cc(C(F)(F)F)cc12` [DI, 2-(1-(2,4-dichloro-3-((3,7-dimethyl-5-(trifluoromethyl)-1H-indol-1-yl)methyl)benzoyl)piperidin-4-yl)acetic acid]: < 0.1 µM.
Then `Cc1cn(C(=O)c2c(Cl)ccc(C(=O)N3CCC(C(=O)O)CC3)c2Cl)c2c(C)cc(C(F)(F)F)cc12` [DJ1-1], with < 0.1 µM; and `Cc1cn(C(=O)c2c(Cl)ccc(C(=O)N3CC[C@H](C(=O)O)[C@H](C)C3)c2Cl)c2c(C)cc(C(F)(F)F)cc12` [DJ1-2], with < 0.1 µM.
With `Cc1cn(C(=O)c2c(Cl)ccc(C(=O)N3CC[C@@H](C(=O)O)[C@@H](C)C3)c2Cl)c2c(C)cc(C(F)(F)F)cc12` [DJ1-3], the IC50 was < 0.1 µM.
For the molecule `Cc1cn(C(=O)c2c(Cl)ccc(C(=O)N3CCC(CC(=O)O)CC3)c2Cl)c2c(C)cc(C(F)(F)F)cc12` [DJ, 2-(1-(2,4-dichloro-3-(3,7-dimethyl-5-(trifluoromethyl)-1H-indole-1-carbonyl)benzoyl)piperidin-4-yl)acetic acid], the 50% inhibitory concentration (IC50) was < 0.1 µM.
Then `Cc1cn(Cc2c(Cl)ccc(C(=O)N3CCC(O)CC3)c2Cl)c2c(C)cc(C#N)cc12` [DK, 1-(2,6-dichloro-3-(4-hydroxypiperidine-1-carbonyl)benzyl)-3,7-dimethyl-1H-indole-5-carbonitrile], with 0.1 to 0.5 µM; and `Cc1cn(Cc2c(Cl)ccc(C(=O)N3CCC(CC(=O)O)CC3)c2Cl)c2c(C)cc(C#N)cc12` [DL, 2-(1-(2,4-dichloro-3-((5-cyano-3,7-dimethyl-1H-indol-1-yl)methyl)benzoyl)piperidin-4-yl)acetic acid], with < 0.1 µM.
As to `Cc1cn(C(=O)c2c(Cl)ccc(C(=O)N3CCC(O)CC3)c2Cl)c2c(C)cc(C#N)cc12` [DM, 1-(2,6-dichloro-3-(4-hydroxypiperidine-1-carbonyl)benzoyl)-3,7-dimethyl-1H-indole-5-carbonitrile], the IC50 is 0.1 to 0.5 µM.
Consider `Cc1cn(C(=O)c2c(Cl)ccc(C(=O)N3CCC(CC(=O)O)CC3)c2Cl)c2c(C)cc(C#N)cc12` [DN, 2-(1-(2,4-dichloro-3-(5-cyano-3,7-dimethyl-1H-indole-1-carbonyl)benzoyl)piperidin-4-yl)acetic acid], for which the IC50 was < 0.1 µM.
The same measure for `Cc1cc(C(F)(F)F)nc2c1cc(Cc1c(Cl)ncc(C(=O)N3CCC(O)CC3)c1Cl)n2C` [DO, (4,6-dichloro-5-((1,4-dimethyl-6-(trifluoromethyl)-1H-pyrrolo[2,3-b]pyridin-2-yl)methyl)pyridin-3-yl)(4-hydroxypiperidin-1-yl)methanone]: < 0.1 µM; for `Cc1cc(OC(F)(F)F)cc2c1cc(Cc1c(Cl)ccc(C(=O)N3CCC(CC(=O)O)CC3)c1Cl)n2C` [DP, 2-(1-(2,4-dichloro-3-((1,4-dimethyl-6-(trifluoromethoxy)-1H-indol-2-yl)methyl)benzoyl)piperidin-4-yl)acetic acid]: < 0.1 µM; for `Cc1cc(OC(F)(F)F)cc2c1cc(Cc1c(Cl)ccc(C(=O)N3CCOCC3)c1Cl)n2C` [DP-1, (2,4-dichloro-3-((1,4-dimethyl-6-(trifluoromethoxy)-1H-indol-2-yl)methyl)phenyl)(morpholino)methanone]: < 0.1 µM.
Consider `Cc1cc(OC(F)(F)F)cc2c1cc(Cc1c(Cl)ccc(C(=O)N3CC[C@H](C(=O)O)[C@H](C)C3)c1Cl)n2C` [DP-2, (3S,4S)-1-(2,4-dichloro-3-((1,4-dimethyl-6-(trifluoromethoxy)-1H-indol-2-yl)methyl)benzoyl)-3-methylpiperidine-4-carboxylic acid], for which the IC50 is < 0.1 µM.
The same measure for `Cc1cc(OC(F)(F)F)cc2c1cc(Cc1c(Cl)ccc(C(=O)N3CC[C@@H](C(=O)O)[C@@H](C)C3)c1Cl)n2C` [DP-3, (3R,4R)-1-(2,4-dichloro-3-((1,4-dimethyl-6-(trifluoromethoxy)-1H-indol-2-yl)methyl)benzoyl)-3-methylpiperidine-4-carboxylic acid]: < 0.1 µM.
Consider `Cn1c(Cc2c(Cl)ccc(C(=O)N3CCOCC3)c2Cl)cc2c(Cl)cc(C#N)cc21` [DQ, 4-chloro-2-(2,6-dichloro-3-(morpholine-4-carbonyl)benzyl)-1-methyl-1H-indole-6-carbonitrile], for which the IC50 is < 0.1 µM.
Then `Cc1cc(OC(F)(F)F)cc2c1c(Cc1c(Cl)ccc(C(=O)N3CCC(CC(=O)O)CC3)c1Cl)cn2C` [DU1-1], with < 0.1 µM.
Then `Cc1cc(OC(F)(F)F)cc2c1c(Cc1c(Cl)ccc(C(=O)N3CCC(C(=O)O)C(C)C3)c1Cl)cn2C` (centres unmarked) [DU1-2], with < 0.1 µM; and `Cc1cc(OC(F)(F)F)cc2c1c(Cc1c(Cl)ccc(C(=O)N3CCC(C(=O)O)CC3)c1Cl)cn2C` [DU, 1-[2,4-dichloro-3-[[1,4-dimethyl-6-(trifluoromethoxy)-1H-indol-3-yl]methyl]benzoyl]piperidine-4-carboxylic acid], with < 0.1 µM.
Then `Cc1cc(C(F)(F)F)cc2c1c(Cc1c(Cl)ncc(C(=O)N3CCC(CC(=O)O)CC3)c1Cl)cn2C` [DV, 2-[1-[4,6-dichloro-5-[[1,4-dimethyl-6-(trifluoromethyl)-1H-indol-3-yl]methyl]pyridine-3-carbonyl]-4-piperidyl]acetic acid], with < 0.1 µM; and `Cc1cc(C(F)(F)F)cc2c1c(Cc1c(Cl)cnc(C(=O)N3CCC(CC(=O)O)CC3)c1Cl)cn2C` [DW, 2-[1-[3,5-dichloro-4-[[1,4-dimethyl-6-(trifluoromethyl)-1H-indol-3-yl]methyl]pyridine-2-carbonyl]-4-piperidyl]acetic acid], with < 0.1 µM; and `Cc1cc(OC(F)(F)F)cc2c1c(Cc1c(Cl)cnc(C(=O)N3CCC(CC(=O)O)CC3)c1Cl)cn2C` [DX, 2-[1-[3,5-dichloro-4-[[1,4-dimethyl-6-(trifluoromethoxy)-1H-indol-3-yl]methyl]pyridine-2-carbonyl]-4-piperidyl]acetic acid], with < 0.1 µM.
In the case of `Cc1cc(OC(F)(F)F)cc2c1c(Cc1c(Cl)ncc(C(=O)N3CCC(CC(=O)O)CC3)c1Cl)cn2C` [DY, 2-[1-[4,6-dichloro-5-[[1,4-dimethyl-6-(trifluoromethoxy)-1H-indol-3-yl]methyl]pyridine-3-carbonyl]-4-piperidyl]acetic acid], the half-maximal inhibitory concentration (IC50) is < 0.1 µM.
With `Cc1cc(C(F)(F)F)cc2occ(Cc3c(Cl)ccc(C(=O)N4CCC(CC(=O)O)CC4)c3Cl)c12` [DZ, 2-(1-(2,4-dichloro-3-((4-methyl-6-(trifluoromethyl)benzofuran-3-yl)methyl)benzoyl)piperidin-4-yl)acetic acid], the half-inhibitory concentration (IC50) is < 0.1 µM.
Then `Cc1nn(C(=O)c2c(Cl)ccc(C(=O)N3CCC(CC(=O)O)CC3)c2Cl)c2c(C)cc(C(F)(F)F)cc12` [EA, 2-(1-(2,4-dichloro-3-(3,7-dimethyl-5-(trifluoromethyl)-1H-indazole-1-carbonyl)benzoyl)piperidin-4-yl)acetic acid], with < 0.1 µM; and `Cc1cc(C(F)(F)F)cc2c(C)n(C(=O)c3c(Cl)ccc(C(=O)N4CCC(CC(=O)O)CC4)c3Cl)nc12` [EB, 2-(1-(2,4-dichloro-3-(3,7-dimethyl-5-(trifluoromethyl)-2H-indazole-2-carbonyl)benzoyl)piperidin-4-yl)acetic acid], with < 0.1 µM.
Regarding `Cc1cc(C(F)(F)F)cc2cnn(Cc3c(Cl)ccc(C(=O)N4CCC(CC(=O)O)CC4)c3Cl)c12` [EC, 2-(1-(2,4-dichloro-3-((7-methyl-5-(trifluoromethyl)-1H-indazol-1-yl)methyl)benzoyl)piperidin-4-yl)acetic acid], the IC50 is < 0.1 µM.
Regarding `Cc1cc(C(F)(F)F)cc2cn(Cc3c(Cl)ccc(C(=O)N4CCC(CC(=O)O)CC4)c3Cl)nc12` [ED, 2-(1-(2,4-dichloro-3-((7-methyl-5-(trifluoromethyl)-2H-indazol-2-yl)methyl)benzoyl)piperidin-4-yl)acetic acid], the IC50 was < 0.1 µM.
Then `Cc1cc(C(F)(F)F)cc2c1c(Cc1c(Cl)ccc(C(=O)N3CCC(CC(=O)O)CC3)c1Cl)nn2C` [EE, 2-(1-(2,4-dichloro-3-((1,4-dimethyl-6-(trifluoromethyl)-1H-indazol-3-yl)methyl)benzoyl)piperidin-4-yl)acetic acid], with < 0.1 µM; and `Cc1nn(Cc2c(Cl)ccc(C(=O)N3CCC(CC(=O)O)CC3)c2Cl)c2ccc(C(F)(F)F)cc12` [EF, 2-(1-(2,4-dichloro-3-((3-methyl-5-(trifluoromethyl)-1H-indazol-1-yl)methyl)benzoyl)piperidin-4-yl)acetic acid], with < 0.1 µM; and `Cc1cn(Cc2c(Cl)ccc(C(=O)N3CCC(CC(=O)O)CC3)c2Cl)c2c(C)cc(OC(F)(F)F)cc12` [EG, 2-[1-[2,4-dichloro-3-[[3,7-dimethyl-5-(trifluoromethoxy)-1H-indol-1-yl]methyl]benzoyl]-4-piperidyl]acetic acid], with < 0.1 µM.
Then `Cc1cn(Cc2c(Cl)ccc(C(=O)N3CCC(C(=O)O)CC3)c2Cl)c2c(C)cc(OC(F)(F)F)cc12` [EG-1], with < 0.1 µM; and `Cc1cn(Cc2c(Cl)ccc(C(=O)N3CC[C@@H](C(=O)O)[C@@H](C)C3)c2Cl)c2c(C)cc(OC(F)(F)F)cc12` [EG-2], with < 0.1 µM.

The record behind these values is US10106501B2, “Nuclear receptor modulators” (AbbVie Inc., priority 2015, dated 2018).
